Measurements taken from the kinase profiling compilation of Christmann-Franck et al. (2016).

What was measured:
Assay in all cases: radiometric filter-binding kinase assay, Kinase HotSpot
Conditions in all cases: compound 0.5 µM; ATP 10 µM
HCK (human) = HCK (human) (UniProt P08631)
NEK11 (human) = NEK11 (human) (UniProt Q8NG66)
NUAK2 (human) = NUAK2 (human) (UniProt Q9H093)
PRKCD (human) = PRKCD (human) (UniProt Q05655)
MATK (human) = MATK (human) (UniProt P42679)
ACVR1 (human) = ACVR1 (human) (UniProt Q04771)
PRKCG (human) = PRKCG (human) (UniProt P05129)
DYRK2 (human) = DYRK2 (human) (UniProt Q92630)
MAP3K10 (human) = MAP3K10 (human) (UniProt Q02779)
RPS6KB2 (human) = RPS6KB2 (human) (UniProt Q9UBS0)
PAK7 (human) = PAK7 (human) (UniProt Q9P286)
CSK (human) = CSK (human) (UniProt P41240)
CSNK1D (human) = CSNK1D (human) (UniProt P48730)
IKBKB (human) = IKBKB (human) (UniProt O14920)
MINK1 (human) = MINK1 (human) (UniProt Q8N4C8)
MARK4 (human) = MARK4 (human) (UniProt Q96L34)
MERTK (human) = MERTK (human) (UniProt Q12866)
CDK9 CCNK (human) = CDK9 CCNK (human) (UniProt O75909+P50750)
ABL2 (human) = ABL2 (human) (UniProt P42684)
Sequence of ABL2 (human) (P42684 whole entry, looked up): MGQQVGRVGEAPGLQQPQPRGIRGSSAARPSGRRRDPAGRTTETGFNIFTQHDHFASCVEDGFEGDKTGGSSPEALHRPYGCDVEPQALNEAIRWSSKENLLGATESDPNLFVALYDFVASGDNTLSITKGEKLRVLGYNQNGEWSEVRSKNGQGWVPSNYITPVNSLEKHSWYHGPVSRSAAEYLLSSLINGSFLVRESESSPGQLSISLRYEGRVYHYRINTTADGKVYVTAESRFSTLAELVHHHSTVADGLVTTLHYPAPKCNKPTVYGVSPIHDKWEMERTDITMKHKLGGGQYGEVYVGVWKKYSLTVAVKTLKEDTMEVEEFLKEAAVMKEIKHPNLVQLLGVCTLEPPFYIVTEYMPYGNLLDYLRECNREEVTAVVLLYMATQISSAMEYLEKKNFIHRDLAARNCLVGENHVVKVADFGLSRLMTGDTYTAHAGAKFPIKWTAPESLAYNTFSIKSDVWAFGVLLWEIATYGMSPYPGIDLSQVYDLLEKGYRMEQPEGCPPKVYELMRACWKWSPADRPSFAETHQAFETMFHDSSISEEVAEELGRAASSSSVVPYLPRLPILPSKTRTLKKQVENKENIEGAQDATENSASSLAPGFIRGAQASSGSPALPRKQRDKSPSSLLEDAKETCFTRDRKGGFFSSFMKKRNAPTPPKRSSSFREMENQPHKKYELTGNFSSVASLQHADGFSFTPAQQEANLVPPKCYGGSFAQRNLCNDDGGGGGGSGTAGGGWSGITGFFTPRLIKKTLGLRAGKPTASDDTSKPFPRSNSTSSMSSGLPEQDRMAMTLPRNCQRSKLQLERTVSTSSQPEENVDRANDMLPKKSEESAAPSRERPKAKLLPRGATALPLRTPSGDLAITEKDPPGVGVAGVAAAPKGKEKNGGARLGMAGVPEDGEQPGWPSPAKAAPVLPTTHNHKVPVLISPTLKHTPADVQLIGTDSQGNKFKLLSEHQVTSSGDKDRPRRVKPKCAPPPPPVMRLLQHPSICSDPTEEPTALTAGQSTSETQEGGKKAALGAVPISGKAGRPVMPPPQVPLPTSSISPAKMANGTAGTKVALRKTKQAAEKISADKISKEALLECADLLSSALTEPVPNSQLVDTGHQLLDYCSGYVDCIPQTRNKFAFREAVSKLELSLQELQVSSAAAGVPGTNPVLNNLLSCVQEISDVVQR

EPHA8 (human) = EPHA8 (human) (UniProt P29322)
PRKCH (human) = PRKCH (human) (UniProt P24723)
DSTYK (human) = DSTYK (human) (UniProt Q6XUX3)
TAOK2 (human) = TAOK2 (human) (UniProt Q9UL54)
CDK5 CDK5R1 p35 (human) = CDK5 CDK5R1 p35 (human) (UniProt Q00535+Q15078)
PIM3 (human) = PIM3 (human) (UniProt Q86V86)
HIPK2 (human) = HIPK2 (human) (UniProt Q9H2X6)
EPHA6 (human) = EPHA6 (human) (UniProt Q9UF33)
FER (human) = FER (human) (UniProt P16591)
MAPK13 (human) = MAPK13 (human) (UniProt O15264)
FGR (human) = FGR (human) (UniProt P09769)
Sequence of FGR (human) (P09769 whole entry, looked up): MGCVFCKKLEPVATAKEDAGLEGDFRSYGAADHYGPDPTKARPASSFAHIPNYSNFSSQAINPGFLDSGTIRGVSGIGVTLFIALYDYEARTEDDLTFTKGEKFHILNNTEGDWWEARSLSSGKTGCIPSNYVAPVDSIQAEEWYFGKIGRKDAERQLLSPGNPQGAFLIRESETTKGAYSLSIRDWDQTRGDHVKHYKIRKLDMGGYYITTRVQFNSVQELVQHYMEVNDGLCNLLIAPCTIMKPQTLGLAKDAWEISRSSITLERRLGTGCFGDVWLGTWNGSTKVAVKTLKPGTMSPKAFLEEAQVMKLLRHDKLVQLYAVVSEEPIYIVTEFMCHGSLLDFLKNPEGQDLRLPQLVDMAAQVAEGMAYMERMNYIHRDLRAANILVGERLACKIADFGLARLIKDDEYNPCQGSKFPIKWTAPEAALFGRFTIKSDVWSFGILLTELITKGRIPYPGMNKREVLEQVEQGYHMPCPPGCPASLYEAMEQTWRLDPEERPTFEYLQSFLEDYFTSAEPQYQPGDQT

ULK1 (human) = ULK1 (human) (UniProt O75385)
CDC42BPA (human) = CDC42BPA (human) (UniProt Q5VT25)
BRSK2 (human) = BRSK2 (human) (UniProt Q8IWQ3)
INSR (human) = INSR (human) (UniProt P06213)
Sequence of INSR (human) (P06213 whole entry, looked up): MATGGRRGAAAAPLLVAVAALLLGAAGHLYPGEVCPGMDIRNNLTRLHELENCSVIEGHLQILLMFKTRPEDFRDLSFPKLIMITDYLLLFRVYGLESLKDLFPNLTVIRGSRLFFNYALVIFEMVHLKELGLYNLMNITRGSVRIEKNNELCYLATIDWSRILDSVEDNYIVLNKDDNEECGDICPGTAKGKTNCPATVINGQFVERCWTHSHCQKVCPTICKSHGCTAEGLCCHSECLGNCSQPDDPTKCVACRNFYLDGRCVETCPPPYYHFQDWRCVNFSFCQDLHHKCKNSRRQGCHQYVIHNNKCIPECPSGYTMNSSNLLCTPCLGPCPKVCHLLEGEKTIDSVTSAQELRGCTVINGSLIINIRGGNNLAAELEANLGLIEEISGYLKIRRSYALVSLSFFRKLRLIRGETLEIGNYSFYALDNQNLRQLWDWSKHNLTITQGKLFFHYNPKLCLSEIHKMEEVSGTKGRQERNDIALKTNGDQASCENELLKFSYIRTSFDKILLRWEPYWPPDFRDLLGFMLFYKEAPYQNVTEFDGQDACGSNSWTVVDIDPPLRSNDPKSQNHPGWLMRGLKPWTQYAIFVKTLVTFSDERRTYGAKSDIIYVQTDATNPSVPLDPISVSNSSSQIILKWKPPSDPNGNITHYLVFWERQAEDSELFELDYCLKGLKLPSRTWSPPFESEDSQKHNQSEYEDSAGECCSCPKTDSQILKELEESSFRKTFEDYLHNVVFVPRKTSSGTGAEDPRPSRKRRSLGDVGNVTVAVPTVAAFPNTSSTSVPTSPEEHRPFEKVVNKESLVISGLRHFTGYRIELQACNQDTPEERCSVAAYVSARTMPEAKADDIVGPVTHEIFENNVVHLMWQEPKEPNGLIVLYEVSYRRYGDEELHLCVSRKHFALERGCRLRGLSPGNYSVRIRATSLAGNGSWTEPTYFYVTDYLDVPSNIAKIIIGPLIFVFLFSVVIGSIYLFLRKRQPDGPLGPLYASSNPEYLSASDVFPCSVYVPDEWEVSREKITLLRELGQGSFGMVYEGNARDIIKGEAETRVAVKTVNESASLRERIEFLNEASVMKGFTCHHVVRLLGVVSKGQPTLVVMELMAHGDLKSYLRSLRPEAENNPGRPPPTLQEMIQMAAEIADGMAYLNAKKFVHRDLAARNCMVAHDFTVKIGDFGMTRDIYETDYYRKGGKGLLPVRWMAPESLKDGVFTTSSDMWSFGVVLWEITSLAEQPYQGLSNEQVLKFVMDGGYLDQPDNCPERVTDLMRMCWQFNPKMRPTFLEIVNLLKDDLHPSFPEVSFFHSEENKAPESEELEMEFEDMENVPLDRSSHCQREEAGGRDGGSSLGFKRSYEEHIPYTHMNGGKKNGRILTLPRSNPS

STK11 (human) = STK11 (human) (UniProt Q15831)
MAP2K2 (human) = MAP2K2 (human) (UniProt P36507)
EPHB1 (human) = EPHB1 (human) (UniProt P54762)
Sequence of EPHB1 (human) (P54762 whole entry, looked up): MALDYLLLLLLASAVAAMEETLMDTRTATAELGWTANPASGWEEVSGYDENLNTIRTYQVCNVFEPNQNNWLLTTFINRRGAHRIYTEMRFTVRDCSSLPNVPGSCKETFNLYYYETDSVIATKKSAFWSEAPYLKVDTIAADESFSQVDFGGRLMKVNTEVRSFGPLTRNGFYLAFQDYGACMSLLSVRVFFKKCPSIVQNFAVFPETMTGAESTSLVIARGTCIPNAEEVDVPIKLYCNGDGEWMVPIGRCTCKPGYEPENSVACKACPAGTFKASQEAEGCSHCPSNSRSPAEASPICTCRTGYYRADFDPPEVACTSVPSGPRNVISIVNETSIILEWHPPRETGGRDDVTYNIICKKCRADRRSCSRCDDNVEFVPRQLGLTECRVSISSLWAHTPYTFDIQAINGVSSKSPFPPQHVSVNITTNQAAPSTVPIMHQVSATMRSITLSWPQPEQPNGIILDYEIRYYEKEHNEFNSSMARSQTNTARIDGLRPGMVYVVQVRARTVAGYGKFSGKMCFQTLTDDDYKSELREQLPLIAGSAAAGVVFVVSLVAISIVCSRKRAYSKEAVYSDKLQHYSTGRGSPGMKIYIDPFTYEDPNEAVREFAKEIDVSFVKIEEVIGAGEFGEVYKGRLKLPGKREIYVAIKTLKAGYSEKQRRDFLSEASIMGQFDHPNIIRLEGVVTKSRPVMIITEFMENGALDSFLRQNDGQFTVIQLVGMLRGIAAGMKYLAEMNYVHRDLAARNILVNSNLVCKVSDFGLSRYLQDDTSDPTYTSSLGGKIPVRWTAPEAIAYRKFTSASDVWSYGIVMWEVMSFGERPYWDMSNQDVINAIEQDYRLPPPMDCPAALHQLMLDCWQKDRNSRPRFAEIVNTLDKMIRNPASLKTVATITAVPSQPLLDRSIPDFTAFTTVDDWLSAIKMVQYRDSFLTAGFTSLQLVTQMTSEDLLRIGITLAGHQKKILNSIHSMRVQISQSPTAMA

TGFBR1 (human) = TGFBR1 (human) (UniProt P36897)
TYRO3 (human) = TYRO3 (human) (UniProt Q06418)
MARK3 (human) = MARK3 (human) (UniProt P27448)
EPHB4 (human) = EPHB4 (human) (UniProt P54760)

Sequence of HCK (human) (P08631 whole entry, looked up): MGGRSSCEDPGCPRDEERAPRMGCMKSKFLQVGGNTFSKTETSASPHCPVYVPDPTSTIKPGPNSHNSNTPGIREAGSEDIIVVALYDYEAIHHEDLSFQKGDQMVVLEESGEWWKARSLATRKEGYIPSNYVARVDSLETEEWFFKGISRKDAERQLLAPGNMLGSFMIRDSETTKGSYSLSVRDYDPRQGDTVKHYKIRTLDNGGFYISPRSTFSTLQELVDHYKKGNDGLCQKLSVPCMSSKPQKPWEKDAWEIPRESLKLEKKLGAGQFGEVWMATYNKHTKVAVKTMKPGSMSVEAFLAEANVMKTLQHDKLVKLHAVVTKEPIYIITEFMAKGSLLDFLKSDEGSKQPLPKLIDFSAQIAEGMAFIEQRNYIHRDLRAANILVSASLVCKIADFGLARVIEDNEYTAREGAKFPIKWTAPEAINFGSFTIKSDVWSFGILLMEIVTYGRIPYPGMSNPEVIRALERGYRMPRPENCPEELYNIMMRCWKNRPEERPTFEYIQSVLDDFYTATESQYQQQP

Cc1ccc(Nc2nccc(N(C)c3ccc4c(C)n(C)nc4c3)n2)cc1S(N)(=O)=O
residual activity (HCK (human)): 64.8%
residual activity (NEK11 (human)): 94.8%
residual activity (NUAK2 (human)): 93.8%
residual activity (PRKCD (human)): 106%
residual activity (MATK (human)): 104%
residual activity (ACVR1 (human)): 104%
residual activity (PRKCG (human)): 93.5%
residual activity (DYRK2 (human)): 98.8%
residual activity (MAP3K10 (human)): 28.5%
residual activity (RPS6KB2 (human)): 103%
residual activity (PAK7 (human)): 95.4%
residual activity (CSK (human)): 93%
residual activity (CSNK1D (human)): 95.4%
residual activity (IKBKB (human)): 86.9%
residual activity (MINK1 (human)): 73.7%
residual activity (MARK4 (human)): 98%
residual activity (MERTK (human)): 57.2%
residual activity (CDK9 CCNK (human)): 92.7%
residual activity (ABL2 (human)): 38.5%
residual activity (EPHA8 (human)): 90%
residual activity (PRKCH (human)): 110%
residual activity (DSTYK (human)): 94.3%
residual activity (TAOK2 (human)): 26.8%
residual activity (CDK5 CDK5R1 p35 (human)): 99.3%
residual activity (PIM3 (human)): 81.6%
residual activity (HIPK2 (human)): 105%
residual activity (EPHA6 (human)): 80%
residual activity (FER (human)): 81.3%
residual activity (MAPK13 (human)): 94.6%
residual activity (FGR (human)): 35.8%
residual activity (ULK1 (human)): 97.3%
residual activity (CDC42BPA (human)): 85.4%
residual activity (BRSK2 (human)): 101%
residual activity (INSR (human)): 107%
residual activity (STK11 (human)): 92.1%
residual activity (MAP2K2 (human)): 94.8%
residual activity (EPHB1 (human)): 92.2%
residual activity (TGFBR1 (human)): 103%
residual activity (TYRO3 (human)): 92%
residual activity (MARK3 (human)): 96.6%
residual activity (EPHB4 (human)): 93.8%
